Experimental data: PubChem BioAssay (NCI)
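The compound was tested at five concentrations on cells cultured in 96-well plates, with a 48-hour exposure period. TGI: concentration producing complete growth inhibition.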

Experiments:
Test in all cases: growth of human tumour cells (NCI), 48 h
BT-549 breast = tested on: BT-549 breast
MDA-MB-435 = tested on: MDA-MB-435
SW-620 colon = tested on: SW-620 colon
MCF7 breast = tested on: MCF7 breast
NCI-H23 lung = tested on: NCI-H23 lung
NCI-H226 lung = tested on: NCI-H226 lung
SF-268 CNS = tested on: SF-268 CNS
NCI/ADR-RES ovarian = tested on: NCI/ADR-RES ovarian
EKVX NSCLC = tested on: EKVX NSCLC
OVCAR-3 ovarian = tested on: OVCAR-3 ovarian
OVCAR-8 ovarian = tested on: OVCAR-8 ovarian
A498 renal = tested on: A498 renal
786-0 renal = tested on: 786-0 renal
RXF 393 renal = tested on: RXF 393 renal
COLO 205 colon = tested on: COLO 205 colon
UO-31 renal = tested on: UO-31 renal
MALME-3M melanoma = tested on: MALME-3M melanoma
SF-295 CNS = tested on: SF-295 CNS
DU-145 prostate = tested on: DU-145 prostate
NCI-H522 lung = tested on: NCI-H522 lung
SR leukemia = tested on: SR leukemia
K-562 leukemia = tested on: K-562 leukemia
SNB-75 CNS = tested on: SNB-75 CNS
TK-10 renal = tested on: TK-10 renal
OVCAR-4 ovarian = tested on: OVCAR-4 ovarian
PC-3 prostate = tested on: PC-3 prostate
IGROV1 ovarian = tested on: IGROV1 ovarian
MDA-MB-231 breast = tested on: MDA-MB-231 breast
RPMI-8226 leukemia = tested on: RPMI-8226 leukemia
U251 CNS = tested on: U251 CNS
HCT-116 colon = tested on: HCT-116 colon
SF-539 CNS = tested on: SF-539 CNS
HS 578T breast = tested on: HS 578T breast
SK-MEL-5 melanoma = tested on: SK-MEL-5 melanoma
UACC-62 melanoma = tested on: UACC-62 melanoma
HL-60(TB) leukemia = tested on: HL-60(TB) leukemia
OVCAR-5 ovarian = tested on: OVCAR-5 ovarian
HCC-2998 colon = tested on: HCC-2998 colon
SN12C renal = tested on: SN12C renal
UACC-257 melanoma = tested on: UACC-257 melanoma
ACHN renal = tested on: ACHN renal
HOP-62 NSCLC = tested on: HOP-62 NSCLC
SK-MEL-2 melanoma = tested on: SK-MEL-2 melanoma
HCT-15 colon = tested on: HCT-15 colon
NCI-H460 lung = tested on: NCI-H460 lung
HT29 colon = tested on: HT29 colon
MOLT-4 leukemia = tested on: MOLT-4 leukemia
KM12 colon = tested on: KM12 colon
CAKI-1 renal = tested on: CAKI-1 renal
SK-MEL-28 melanoma = tested on: SK-MEL-28 melanoma
MDA-N = tested on: MDA-N
SNB-19 CNS = tested on: SNB-19 CNS
M14 melanoma = tested on: M14 melanoma
CCRF-CEM leukemia = tested on: CCRF-CEM leukemia
SK-OV-3 ovarian = tested on: SK-OV-3 ovarian
A549 NSCLC = tested on: A549 NSCLC
HOP-92 NSCLC = tested on: HOP-92 NSCLC
LOX IMVI melanoma = tested on: LOX IMVI melanoma

Measured: TGI

O=c1[nH]c2[nH]c(-c3ccc(Br)cc3)cc2c2ccccc12
28 µM: HL-60(TB) leukemia
38.5 µM: HS 578T breast
92.1 µM: U251 CNS
37.1 µM: SNB-75 CNS
26.9 µM: SR leukemia | MOLT-4 leukemia
47.1 µM: RXF 393 renal
44.6 µM: MDA-MB-231 breast
> 100 µM: BT-549 breast | MDA-MB-435 | SW-620 colon | MCF7 breast | NCI-H23 lung | NCI-H226 lung | SF-268 CNS | NCI/ADR-RES ovarian | EKVX NSCLC | OVCAR-3 ovarian | OVCAR-8 ovarian | A498 renal | 786-0 renal | COLO 205 colon | UO-31 renal | MALME-3M melanoma | SF-295 CNS | DU-145 prostate | NCI-H522 lung | K-562 leukemia | TK-10 renal | OVCAR-4 ovarian | PC-3 prostate | IGROV1 ovarian | RPMI-8226 leukemia | HCT-116 colon | SF-539 CNS | SK-MEL-5 melanoma | UACC-62 melanoma | OVCAR-5 ovarian | HCC-2998 colon | SN12C renal | UACC-257 melanoma | ACHN renal | SK-MEL-2 melanoma | HCT-15 colon | NCI-H460 lung | HT29 colon | KM12 colon | CAKI-1 renal | SK-MEL-28 melanoma | MDA-N | SNB-19 CNS
53.9 µM: HOP-62 NSCLC

C=C1CCc2ccccc2C1=O
> 100 µM: BT-549 breast | MDA-MB-435 | SW-620 colon | MCF7 breast | NCI-H23 lung | NCI-H226 lung | SF-268 CNS | NCI/ADR-RES ovarian | EKVX NSCLC | OVCAR-3 ovarian | OVCAR-8 ovarian | M14 melanoma | A498 renal | 786-0 renal | RXF 393 renal | COLO 205 colon | UO-31 renal | MALME-3M melanoma | SF-295 CNS | CCRF-CEM leukemia | DU-145 prostate | SK-OV-3 ovarian | NCI-H522 lung | K-562 leukemia | SNB-75 CNS | A549 NSCLC | TK-10 renal | OVCAR-4 ovarian | PC-3 prostate | IGROV1 ovarian | MDA-MB-231 breast | RPMI-8226 leukemia | U251 CNS | HCT-116 colon | SF-539 CNS | HS 578T breast | SK-MEL-5 melanoma | UACC-62 melanoma | HL-60(TB) leukemia | OVCAR-5 ovarian | HCC-2998 colon | HOP-92 NSCLC | SN12C renal | UACC-257 melanoma | ACHN renal | HOP-62 NSCLC | SK-MEL-2 melanoma | HCT-15 colon | NCI-H460 lung | HT29 colon | MOLT-4 leukemia | KM12 colon | CAKI-1 renal | MDA-N | SNB-19 CNS
78.9 µM: SR leukemia

COc1ccc(Nc2nc3cc(C(F)(F)F)ccc3nc2C(=O)O)cc1
53.3 µM: NCI-H460 lung
27.2 µM: UACC-62 melanoma
77.6 µM: SW-620 colon
48.3 µM: SNB-75 CNS
26.8 µM: RXF 393 renal
55.5 µM: HS 578T breast
39 µM: HCT-15 colon
31.9 µM: HCC-2998 colon
50.7 µM: UACC-257 melanoma
72.2 µM: SNB-19 CNS
46.7 µM: OVCAR-8 ovarian | COLO 205 colon
43.9 µM: 786-0 renal
44.4 µM: K-562 leukemia
90.2 µM: IGROV1 ovarian
83.6 µM: HL-60(TB) leukemia
67.5 µM: EKVX NSCLC
60.6 µM: OVCAR-5 ovarian
29.2 µM: BT-549 breast
> 100 µM: DU-145 prostate | TK-10 renal | OVCAR-4 ovarian | MDA-MB-231 breast | SN12C renal | ACHN renal | HT29 colon | CAKI-1 renal | SK-MEL-28 melanoma | MDA-N
28.6 µM: MOLT-4 leukemia
92.4 µM: KM12 colon
30.4 µM: U251 CNS | HOP-62 NSCLC
34.1 µM: OVCAR-3 ovarian | SR leukemia
28 µM: SK-MEL-2 melanoma
26.5 µM: UO-31 renal
33.5 µM: HCT-116 colon
54.1 µM: NCI-H226 lung
35 µM: A498 renal
58.5 µM: SK-MEL-5 melanoma
48.1 µM: MDA-MB-435
30 µM: NCI-H23 lung | NCI-H522 lung
40.8 µM: LOX IMVI melanoma
39.5 µM: SF-268 CNS
61 µM: NCI/ADR-RES ovarian
51.7 µM: MCF7 breast
41.4 µM: MALME-3M melanoma
35.7 µM: SF-295 CNS
57 µM: PC-3 prostate
